Measurements published in patent US20100035932A1, “NOVEL FORMYL PEPTIDE RECEPTOR LIKE 1 AGONISTS THAT INDUCE MACROPHAGE TUMOR NECROSIS FACTOR ALPHA AND COMPUTATIONAL STRUCTURE-ACTIVITY RELATIONSHIP ANALYSIS OF THEREOF” (priority 2008, published 2010).
Where two headings read alike, the source gives them in different places.

Assays:
[1] = tested on: human MonoMac6 macrophages; assay: TNF-α production in MonoMac6 cells (ELISA); assay type: cell-based; conditions: 24 hr, various concentrations
human neutrophils [2] = assay: Chemotaxis assay, human neutrophils; assay type: cell-based; conditions: percent of response induced by 50 nM IL-8
human neutrophils [3] = assay: ROS production in human neutrophils (L-012 luminescence); assay type: cell-based; conditions: Neutrophil, concentration that enhanced ROS production by 50% above background, read-out: ROS Production AC50, Human PMN
Method: J774.A1 macrophages were plated at density of 1.5×10^5 cells/well in wells of 96-well flat-bottom white microtiter plates (Corning Incorporated, Costar). After 16 hr (5% CO2, 37° C.), the media was aspirated, and test compounds or vehicle (final DMSO concentration of 1%) were added in fresh media (DMEM without phenol red, supplemented with 3% (v/v) FBS). After 5 min, the media was replaced by HBSS+ containing 4 μM L-012 and 8 μg/ml HRP, and luminescence was monitored for 120 min (2-min intervals) at 37° C. using a Fluoroscan Ascent FL microtiter plate reader (Thermo Electron, Waltham, Mass.). The curve of light intensity (in relative luminescence units) was plotted against time, and the area under the curve was calculated as total luminescence. The percent activation of ROS was calculated as follows: % activation=(sample-DMSO control)/DMSO control×100. The minimal compound concentration that enhanced ROS production by 50% above background control cells (AC50) was determined by graphing the % activation of ROS vs. log [test compound]. Each curve was determined using five to seven compound concentrations. Human neutrophils were plated at density of 5×10^5 cells/well in wells of 96-well flatbottom white microtiter plates, and compounds under investigation or vehicle (final DMSO concentration of 1%) were added. After 5 min, the media was replaced by HBSS+ containing […] L-012, and luminescence was monitored for 120 min (2-min intervals) at 37° C. using a Fluoroscan Ascent FL microtiter plate reader. The results were analysed as described above to determine % activation and AC50 values.

[4] = tested on: human monocytic cells THP-1; assay: TNF-α production in THP-1 cells (ELISA); assay type: cell-based; conditions: 24 hr, various concentrations
Method: Murine macrophage J774.A1 cells were cultured in DMEM supplemented with 10% (v/v) heat-inactivated fetal bovine serum (FBS), 10 mM HEPES, 100 μg/ml streptomycin, and 100 U/ml penicillin. Cells were grown to confluence in sterile tissue culture flasks and gently detached by scraping. Human monocyte/macrophage MonoMac6 cells (DSMZ, Germany) were cultured in RPMI 1640 supplemented with 10% (v/v) FBS, 10 μg/ml bovine insulin, 100 μg/ml streptomycin, and 100 U/ml penicillin. Rat basophilic leukemia (RBL-2H3) cells transfected with human FPR (RBL-FPR) or FPRL1 (RBL-FPRL1) were cultured in DMEM supplemented with 20% (v/v) FBS, 10 mM HEPES, 100 μg/ml streptomycin, and 100 U/ml penicillin, as described previously (Nanamori et al., 2004). Human monocytic THP-1 cells were cultured in RPMI 1640 medium supplemented with 10% (v/v) FBS, 100 μg/ml streptomycin, and 100 U/ml penicillin. […] Cell number and viability were assessed microscopically using trypan blue exclusion.
(§1) Cells were treated for 24 hr with DMSO control, test compound, or LPS and mouse TNF-α or IL-6 and human TNF-α enzyme-linked immunosorbent assay (ELISA) kits (BD Biosciences Pharmigen) were used to detect these cytokines in the cell supernatants. Cytokine concentration was determined by extrapolation from the TNF-α/IL-6 standard curve, according to the manufacturer's protocol.

FPRL1 = molecular target: T1, FPRL1 (Homo sapiens, UniProt P25090); assay: Ca2+ mobilization in RBL-FPRL1 cells; assay type: cell-based
T1 construct: expressed in transfected cells; host or cells: rat basophilic leukemia RBL-2H3 cells (RBL-FPRL1)
T1 sequence (P25090 1-351): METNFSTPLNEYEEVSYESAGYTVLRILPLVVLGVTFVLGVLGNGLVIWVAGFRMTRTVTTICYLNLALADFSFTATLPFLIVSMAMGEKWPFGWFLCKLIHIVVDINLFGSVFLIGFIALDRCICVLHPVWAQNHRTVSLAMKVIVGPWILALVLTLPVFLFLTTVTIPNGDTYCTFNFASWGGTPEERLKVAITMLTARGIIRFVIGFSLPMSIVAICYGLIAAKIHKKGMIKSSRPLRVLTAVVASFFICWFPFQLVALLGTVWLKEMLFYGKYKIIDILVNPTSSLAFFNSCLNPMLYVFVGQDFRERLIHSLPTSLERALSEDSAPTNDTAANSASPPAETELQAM

J774.A1 macrophages [5] = assay: ROS production in J774.A1 macrophages (L-012 luminescence); assay type: cell-based; conditions: Mus musculus, concentration that enhanced ROS production by 50% above background, read-out: ROS Production AC50, Murine Mφ
Method: Murine macrophage J774.A1 cells were cultured in DMEM supplemented with 10% (v/v) heat-inactivated fetal bovine serum (FBS), 10 mM HEPES, 100 μg/ml streptomycin, and 100 U/ml penicillin. Cells were grown to confluence in sterile tissue culture flasks and gently detached by scraping. Human monocyte/macrophage MonoMac6 cells (DSMZ, Germany) were cultured in RPMI 1640 supplemented with 10% (v/v) FBS, 10 μg/ml bovine insulin, 100 μg/ml streptomycin, and 100 U/ml penicillin. Rat basophilic leukemia (RBL-2H3) cells transfected with human FPR (RBL-FPR) or FPRL1 (RBL-FPRL1) were cultured in DMEM supplemented with 20% (v/v) FBS, 10 mM HEPES, 100 μg/ml streptomycin, and 100 U/ml penicillin, as described previously (Nanamori et al., 2004). Human monocytic THP-1 cells were cultured in RPMI 1640 medium supplemented with 10% (v/v) FBS, 100 μg/ml streptomycin, and 100 U/ml penicillin. All cell cultures were grown at 37° C. in a humidified atmosphere containing 5% CO2. Cell number and viability were assessed microscopically using trypan blue exclusion.
J774.A1 macrophages were plated at density of 1.5×10^5 cells/well in wells of 96-well flat-bottom white microtiter plates (Corning Incorporated, Costar). […] After 5 min, the media was replaced by HBSS+ containing 4 μM L-012 and 8 μg/ml HRP, and luminescence was monitored for 120 min (2-min intervals) at 37° C. using a Fluoroscan Ascent FL microtiter plate reader (Thermo Electron, Waltham, Mass.). The curve of light intensity (in relative luminescence units) was plotted against time, and the area under the curve was calculated as total luminescence. The percent activation of ROS was calculated as follows: % activation=(sample-DMSO control)/DMSO control×100. The minimal compound concentration that enhanced ROS production by 50% above background control cells (AC50) was determined by graphing the % activation of ROS vs. log [test compound]. Each curve was determined using five to seven compound concentrations. […] The results were analysed as described above to determine % activation and AC50 values.

J774.A1 macrophages [6] = assay: IL-6 production in J774.A1 macrophages (ELISA); assay type: cell-based, murine; conditions: J774.A1, 24 hr
Method: as §1
(§2) For treatments, cells were plated in 96-well microtiter plates at 2×10^5 cells/well (J774.A1, MonoMac6) or 6×10^4 cells/well (human monocyte-derived macrophages) using their respective culture media, except FBS was reduced to 3% (v/v). After incubation overnight (5% CO2, 37° C.), the media were removed and replaced with fresh media containing test compounds.

[7] = tested on: murine peritoneal macrophages; assay: TNF-α production in murine peritoneal macrophages (ELISA); assay type: cell-based; conditions: 24 hr, various concentrations
Method: Bone marrow leukocytes were flushed from tibias and femurs of BALB/c mice with HBSS− supplemented with 0.1% BSA and 1% glucose and the neutrophils were purified on Percoll density gradients, as previously described (Schepetkin et al., 2007). Peritoneal macrophages were isolated from BALB/c mice 4 days after intraperitoneal injection of 1 ml saline containing 100 μg concanavalin A, as described previously (Schepetkin et al., 2005). Peritoneal exudate cells were suspended in RPMI 1640 containing 10% (v/v) FBS with antibiotics (penicillin and streptomycin) and incubated at 37° C. in 100 mm tissue culture dishes for 1 h. Adherent peritoneal macrophages were harvested and cultured with the compounds under investigation for 24 hr at 37° C. and 5% CO2.
as §1

J774.A1 macrophages [8] = assay: cells; conditions: Mus musculus, J774.A1, read-out: Ca2+ Mobilization EC50, Murine Mφ
Method: Murine macrophage J774.A1 cells were cultured in DMEM supplemented with 10% (v/v) heat-inactivated fetal bovine serum (FBS), 10 mM HEPES, 100 μg/ml streptomycin, and 100 U/ml penicillin. Cells were grown to confluence in sterile tissue culture flasks and gently detached by scraping. […] All cell cultures were grown at 37° C. in a humidified atmosphere containing 5% CO2. Cell number and viability were assessed microscopically using trypan blue exclusion.

J774.A1 macrophages [9] = assay: TNF-α production in J774.A1 macrophages (ELISA); assay type: cell-based, murine; conditions: for fold induction at 50 µM: Mus musculus, J774.A1, 24 h; for Effect of Boc-2 (FPR/FPRL1 antagonist) on compound-induced TNF-α production: pretreated 5 min with Boc 2 (40 μM); for Effect of Boc-2 (FPR/FPRL1 antagonist) on compound-induced TNF-α production / Effect of WRW4 (FPRL1 antagonist) on compound-induced TNF-α production: then 50 μM compound 24 hr; for Effect of WRW4 (FPRL1 antagonist) on compound-induced TNF-α production: pretreated 5 min with WRW4 (10 μM); for Effect of PTX on induced TNF-α production: pretreated 30 min with PTX (0.4 and 1 μg/ml), then Compound 50 μM or LPS 50 ng/ml for 12 hr; for Effect of ActD or CHX on compound-induced TNF-α production: pretreated with ActD 1 μg/ml or CHX 5 μg/ml 30 min, then 50 μM compound 12 hr
human neutrophils [10] = assay: Ca2+ mobilization in human neutrophils (FLIPR Calcium 3); conditions: Neutrophil
murine neutrophils = assay: Chemotaxis assay, murine neutrophils; assay type: cell-based; conditions: percent of response induced by 50 nM KC
[11] = tested on: human monocyte-derived macrophages; assay: TNF-α production in human monocyte-derived macrophages (ELISA); assay type: cell-based; conditions: 24 hr, various concentrations
Method: as §1, §2

J774.A1 cells = assay: Cytotoxicity assay (CellTiter-Glo); assay type: cell-based, murine; conditions: J774.A1, 24 hr
Method: Cytotoxicity was analyzed with a CellTiter-Glo Luminescent Cell Viability Assay Kit (Promega, Inc., Madison, Wis.), according to the manufacturer's protocol. Briefly, J774.A1 cells were cultured at a density of 3×10^4 cells/well with the test compounds for 24 hr at 37° C. and 5% CO2, substrate was added, and luminescence signal in the samples was analyzed with a Fluoroscan Ascent FL.

human FPR = molecular target: T2, human FPR (Homo sapiens, UniProt P21462); assay: Ca2+ mobilization in RBL-FPR cells; assay type: cell-based
T2 construct: expressed in transfected cells; host or cells: rat basophilic leukemia RBL-2H3 cells (RBL-FPR)
T2 sequence (P21462 1-350): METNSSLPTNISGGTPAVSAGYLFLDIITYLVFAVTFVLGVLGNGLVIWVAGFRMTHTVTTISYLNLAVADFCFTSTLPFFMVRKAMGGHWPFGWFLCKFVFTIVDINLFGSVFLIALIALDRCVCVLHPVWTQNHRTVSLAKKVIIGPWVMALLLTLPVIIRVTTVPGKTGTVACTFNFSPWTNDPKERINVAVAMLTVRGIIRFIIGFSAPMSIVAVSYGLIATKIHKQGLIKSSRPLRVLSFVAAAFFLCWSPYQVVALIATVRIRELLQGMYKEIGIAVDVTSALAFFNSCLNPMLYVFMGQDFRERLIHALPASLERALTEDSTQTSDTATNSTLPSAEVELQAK

[12] = relative fold of activation compared to vehicle (DMSO) control for 50 μM compound, N.A. = no activity was observed, read-out: TNF-α production
[13] = read-out: Ca2+ Mobilization EC50, Human PMN

SMILES	TNF-α production in MonoMac6 cells [1]	Chemotaxis (%), Human PMN (human neutrophils [2]) [%]	AC50 (human neutrophils [3]) [µM]	TNF-α production in THP-1 cells [4]	EC50 (FPRL1) [µM]	AC50 (J774.A1 macrophages [5]) [µM]	IL-6 production (J774.A1 macrophages [6])	TNF-α production in murine peritoneal macrophages [7]	EC50 (J774.A1 macrophages [8]) [µM]	fold induction at 50 µM (J774.A1 macrophages [9]; [12])	Effect of Boc-2 (FPR/FPRL1 antagonist) on compound-induced TNF-α production (J774.A1 macrophages [9])	Effect of WRW4 (FPRL1 antagonist) on compound-induced TNF-α production (J774.A1 macrophages [9])	Effect of PTX on induced TNF-α production (J774.A1 macrophages [9])	Effect of ActD or CHX on compound-induced TNF-α production (J774.A1 macrophages [9])	EC50 (human neutrophils [10]; [13]) [µM]	EC50 (human neutrophils [10]; read-out: [Ca2+]i EC50) [µM]	Chemotaxis (%), Murine PMN (murine neutrophils) [%]	TNF-α production in human monocyte-derived macrophages [11]	Effect on cell viability (J774.A1 cells)	further results
O=C(N/N=C/c1ccc(-c2cccc(Br)c2)o1)c1cccnc1 [Compound 1]	induced TNF-α production in a concentration-dependent manner	67.8 ± 9.4	0.2 ± 0.02	induced TNF-α production in a concentration-dependent manner	19.1	25.4 ± 4	induced secretion of IL-6	induced TNF-α production in a concentration-dependent manner	24.1 ± 4.1	40 to 50	inhibited	inhibited	significantly inhibited	completely inhibited	0.3 ± 0.2	0.3	68.9 ± 7.8	induced TNF-α production in a concentration-dependent manner	had no effect on cell viability	fold induction at 50 µM (J774.A1 macrophages [9]; 50 μM compound, above response to vehicle (DMSO) control, Table 5 numbering, N.A. = inactive, read-out: FI (fold-increase of macrophage TNF-α production)): 50; Determined class of macrophage TNF-α inducing activity (J774.A1 macrophages [9]; experimentally determined class): Active
O=C(N/N=C/c1ccc(-c2cccc(C(F)(F)F)c2)o1)c1ccc(F)cc1 [Compound 2, 4-fluoro-benzoic acid [5-(3-trifluoromethyl-phenyl)-2-furyl]methylene-hydrazide]	induced TNF-α production in a concentration-dependent manner	91.3 ± 1.6	0.2 ± 0.04	induced TNF-α production in a concentration-dependent manner	18.3	8.6 ± 2.7	induced secretion of IL-6	induced TNF-α production in a concentration-dependent manner	2.3 ± 0.15	30 to 40	inhibited	inhibited	significantly inhibited	completely inhibited	0.6 ± 0.4	0.6	58.0 ± 1.4	induced TNF-α production in a concentration-dependent manner	had no effect on cell viability	–
COc1cc(/C=N\NC(=O)c2ccc3c(c2)OCO3)ccc1OCc1ccccc1 [Compound 6]	–	98.0 ± 3.4	38.6 ± 3.3	–	–	26.9 ± 3.9	failed to induce macrophage IL-6 production	–	4.2 ± 0.8	5 to 8	–	–	–	–	0.63 ± 0.39	0.63	174.8 ± 9.2	–	–	EC50 (human FPR): 6.6 µM; TNF-α production, primary screening of agonists AG 1-26 (J774.A1 macrophages [9]; murine J774.A1 macrophages): induced modest levels of TNF-α production
